# Counter-ions that a name gives are not always drawn. Like-named read-outs stand apart in the source and are kept apart here.
# Key:
# [1] = tested on: durch Tetrabenazin induzierten Ptosis; assay: Antagonism of tetrabenazine-induced ptosis in the rat (Rubin et al.); type: in vivo, Ratte
# Description: (§1) Die Verbindungen der allgemeinen Formel I und ihre Säureadditionssalze besitzen wertvolle psychopharmakologische Eigenschaften. Insbesondere wirken sie antagonistisch gegenüber der durch Reserpin induzierten Hypothermie, z.B. bei intraperitonealer oder peroraler Applikation an der Ratte, [vgl. Benz und Waser, Arzneimittelforsch. 21 (5) 654 (1971)] im Dosenbereich von 10 bis 100 mg/kg, und gegenüber der durch Tetrabenazin induzierten Ptosis bei intraperitonealer oder peroraler Applikation an der Ratte [vgl. Rubin et al., J. Pharmacol. exptl. Ther. 120, 125 (1957)] im Dosenbereich von 3 bis 100 mg/kg. Beispielsweise beträgt die ED50 von 4,5-Dihydro-2-[(dimethylamino)-methyl]-5-phenyl-1,2,4-triazolo[1,5-a]chinoxalin-hydrochlorid im zweitgenannten Test 3-10 mg/kg per os und 10 mg/kg i.p.. Im Sozialkonflikt-Test an der Ratte zeigen die Verbindungen der allgemeinen Formel I, wie die vorgenannte, anxiolytische Wirkung nach peroraler Verabreichung von Dosen ab 1 mg/kg. […] Die Toxizität der Verbindungen der allgemeinen Formel I ist im Vergleich zu den erwünschten pharmakologischen Wirkungen niedrig. Diese Eigenschaften kennzeichnen die Verbindungen der allgemeinen Formel I als Antidepressiva und Anxiolytica, die zur Behandlung von Depressionen Verwendung finden können.
# Sozialkonflikt-Test = assay: Social conflict test in the rat; type: in vivo, Ratte; details: po, peroral, lowest dose with anxiolytic effect, read-out: anxiolytische Wirkung nach peroraler Verabreichung von Dosen ab
# Description: as §1
# [2] = tested on: isolierten Meerschweinchenvorhof; assay: Isolated guinea pig atrium, inotropic and chronotropic effect; design: species or system Meerschweinchen
# [3] = tested on: isolierten Meerschweinchenvorhof; details: known antidepressants, stated as contrast; cited from earlier work
smiles,measurement,setting,value
"CN(C)Cc1nc2n(n1)-c1ccccc1N(c1ccccc1)C2 [4,5-Dihydro-2-[(dimethylamino)-methyl]-5-phenyl-1,2,4-triazolo[1,5-a]chinoxalin-hydrochlorid]",ED50,[1]; ip,10 mg/kg
same,ED50,"[1]; po, per os",3 to 10 mg/kg
same,minimal effective dose,Sozialkonflikt-Test,≥ 1 mg/kg
same,chronotrope Wirkung,[2],schwach negativ chronotrope
same,inotrope Wirkung,[2],schwach positiv inotrope
CN(C)CCCN1c2ccccc2CCc2ccccc21 [Imipramin],chronotrope Wirkung,[3],positiv chronotropen
same,inotrope Wirkung,[3],eher negativ inotropen

# From patent publication EP0074929A1, “Polycyclic polyazaheterocycles, process for their preparation and pharmaceutical preparations containing them” (CIBA-GEIGY AG, priority 1981, dated 1983)
